Data published in patent EP1625854B1, “Albumin conjugates containing a glucuronic linker” (Deutsches Krebsforschungszentrum Stiftung des öffentlichen …, priority 2004, dated 2006).

Columns and labels:
[1] = system: WEHI-7 cells; experiment: Induction of cell death in glucocorticoid-sensitive WEHI-7 cells (propidium iodide staining, fluorimetric analysis); type: cell-based, mouse
Method: Cell death in glucocorticoid-sensitive WEHI-7 cells was induced by incubation with low molecular hydrocortisone (HC) and albumin-coupled hydrocortisone (hydrocortisone-21-β-D-glucuronide-HSA; HCG-HSA) over a period of 72 h. Different albumin concentrations were equalized by addition of free HSA. Dead cells were determined by fluorimetric analysis (staining with propidium iodide (PI)). […] Since the albumin conjugate was taken up by the cells via endocytosis (whereas the free HC passes the cell membrane via diffusion) HCG-HSA has to be applied in a two-fold concentration for achieving the same effect.

[2] = system: synovial fibroblasts (sFb); experiment: Release of a fluorescent aglycon (methyl umbelliferon) from MUG-HSA in human synovial fibroblasts; type: cell-based
From the text: (§1) The amounts given in the Figure relate to 1 well and the methyl umbelliferon glucuronide within the HSA conjugate. After addition of 1 M NaOH methyl umbelliferon was fluorimetrically determined in the cell subernatant at 448 nm with an excitation at 360 nm. […] Thus, despite its coupling to albumin MUG-HSA is a substrate for human synovial fribroblasts. MUG-(HSA) is stable in medium without cells.

[3] = Stability of MUG-HSA in medium without cells; type: in vitro ADME
From the text: as §1

Question: Which “concentration for achieving the same effect” value ([1]; HCG-HSA relative to free HC, WEHI-7 cells, 72 h) does the source give for “hydrocortisone-21-β-D-glucuronide-HSA [HCG-HSA]” here?
Answer: The value was “two-fold”.

Question: What about the “activity as a glucocorticoid” value ([1]; despite coupling to albumin, WEHI-7 cells, 72 h) of the same substance?
Answer: Its value is “keeps its activity”.

Question: And the Cell death ([1]; incubation over 72 h, albumin concentrations equalized with free HSA, dead cells by PI staining, Figure 3)?
Answer: Its Cell death is “dose dependent cell death”.

Question: For “methyl umbelliferon glucuronide-HSA [MUG-HSA]”, which “cleavage of fluorescent methyl umbelliferon” value ([2]; in conditioned medium of synovial fibroblasts) is on record?
Answer: The value was “could be demonstrated”.

Question: What about the Cleavage ([2]; incubation for 24 h in synovial fibroblasts, methyl umbelliferon fluorimetrically determined in supernatant at 448 nm, excitation 360 nm, Figure 4) of the same substance?
Answer: The Cleavage was “could be demonstrated”.

Question: What about the stability in medium [3] of the same substance?
Answer: Its stability in medium is “stable”.
